Test results from US10912787B2, “Use of N-acetylglucosamine and derivatives thereof to treat muscle disorders” (PUREPHARM INC., priority 2017, dated 2021).
Entries after “also recorded” stand apart in the source; their conditions may differ.

Tests used:
[1] = test system: Myoblasts derived from a patient of DM1; assay: Myogenesis of myoblasts derived from a patient of myotonic dystrophy 1; type: cell-based, human; conditions: after 120 hours of differentiation, FIG. 3
Protocol: It is known that myogenesis is impaired in myotonic dystrophy 1 (DM1). The therapeutic potential of GlcNAc on this impaired myogenesis was thus tested. Myoblasts derived from a patient of DM1 were grown in DMEM supplemented with 20% fetal calf serum till the density of cells reached to 90% confluency. Then, the differentiation was induced by changing the medium to DMEM supplemented with 1% fetal calf serum, 10 μg/ml insulin, and 100 μg/ml apotransferrin. After 120 hours, cells were fixed and MHC in the cells were visualized by the method described in Example 1.

C2C12 cells [2] = assay: Statin-reduced myogenesis of C2C12 cells with or without Simvastatin; type: cell-based, murine; conditions: C2C12, 44 hours; for myoblast differentiation / myogenesis in the presence of Simvastatin: FIG. 5
Text: It is estimated that 10-15% of individuals who take statins-related compounds develop statin-related muscle adverse effects, ranging from mild myalgia to more severed muscle symptoms while the mechanism of statin-induced myopathy remains undetermined. In vitro myogenesis, statins-related compounds reduce in vitro myogenesis and stable adhesion of myotubes. Thus, it was examined whether GlcNAc treatment has any significant effect on the statin-reduced myogenesis. Myogenesis of murine myoblast cells, C2C12 cells was induced by replacing the medium from growing medium to differentiation medium as above DMEM in the presence or absence of different doses of N-acetylglucosamine (GlcNAc) with or without Simvastatin for 44 hours. Cells were then fixed in 3.8% paraformaldehyde containing phosphate buffered saline (PBS) for 15 min. Then cells were permeabilized by PBS-0.25% Triton X100 for 5 min. After washed with PBS, the cells were incubated with anti-MHC antibody (Clone MF-20, 2.5 μg/ml) in the blocking agents (Vectors laboratories) for an hour, followed by anti-mouse antibody labelled with Alex 488. Then nuclei of the cells were stained with DAPI. Fluorescent images were taken through 20× objectives by using Queorum WaveFX spinning Disc confocal system.

C2C12 cells [3] = assay: Myogenesis of murine myoblast C2C12 cells (MHC-positive multinucleated myotubes, immunofluorescence); type: cell-based; conditions: for myogenesis (GlcNAc vs glucosamine): C2C12, different doses, FIGS. 4A-4F; for number of multinuclear MHC expressing myotubes: C2C12, differentiation stopped after 72 hours
Protocol: (§1) N-Acetylglucosamine promotes myogenesis of murine myoblasts: Myogenesis of murine myoblast cells, C2C12 cells was induced by replacing the medium from growing medium (DMEM supplemented with 10% fetal calf serum) to DMEM supplemented with 1% horse serum, insulin (10 μg/ml), transferrin (5.5 μg/ml) and selenium (5 ng/ml) in the presence or absence of different doses of N-acetylglucosamine (GlcNAc). This condition induces the differentiation of myoblasts, including the induction of the synthesis of myosine heavy chains (MHC). Then myoblasts start fusing with each other to form myotubes, which are multinucleated. Cells were fixed in 3.8% paraformaldehyde containing phosphate buffered saline (PBS) for 15 min. Then cells were permeabilized by PBS-0.25% Triton X100 for 5 min. After washed with PBS, the cells were incubated with anti-MHC antibody (Clone MF-20, 2.5 μg/ml) in the blocking agents (Vectors laboratories) for an hour, followed by anti-mouse antibody labelled with Alex 488. Then nuclei of the cells were stained with DAPI. Fluorescent images were taken through 20× objectives by using Queorum WaveFX spinning Disc confocal system.
In the condition shown in FIG. 1, the myogenesis was stopped after the differentiation for 72 hours, which was 18 hours after the presence of myotubes became detectable. […] In FIGS. 2A and 2B, the differentiation was stopped at 62 hours. Fields of view (5×5 FOVs) are stitched together and shown here. One FOV is 0.533 mm square. White color is MHC-positive myotube cells.
as §1, with “Glucosamine is a commercially available supplement, which has been claimed to reduce arthritic pain, although there is any scientific evidence to support this claim. It was examined whether glucosamine has any significant effect on the myogenesis.” for “N-Acetylglucosamine promotes myogenesis of murine myoblasts:”, “(GlcNAc) or glucosamine.” for “(GlcNAc).”, “fusing” for “fusing with”, “PBS—0.25%” for “PBS-0.25%”

[4] = human, long-term oral administration; cited from earlier work
C2C12 cells [5] = assay: Myogenesis of murine myoblast C2C12 cells (MHC-positive multinucleated myotubes, immunofluorescence); type: cell-based; conditions: FIG. 4

formation of myotube in the presence of Simvastatin alone (C2C12 cells [2]) | SMILES | myogenesis of human myoblasts of DM1 [1] | myogenesis of human myoblasts of DM1 ([1]; listed as N-acetylglucosamine) | myoblast differentiation / myogenesis in the presence of Simvastatin (C2C12 cells [2]) | myoblast differentiation / myogenesis in the presence of Simvastatin (C2C12 cells [2]; listed as N-acetylglucosamine) | adhesion of myotubes (C2C12 cells [2]; with Simvastatin, preliminary data not shown) | myogenesis (GlcNAc vs glucosamine) (C2C12 cells [3]) | myogenesis (GlcNAc vs glucosamine) (C2C12 cells [3]; listed as N-acetylglucosamine) | number of multinuclear MHC expressing myotubes (C2C12 cells [3]; FIG. 1) | number of multinuclear MHC expressing myotubes (C2C12 cells [3]; FIG. 1, listed as N-acetylglucosamine) | number, length and width of myotubes (C2C12 cells [3]; C2C12, differentiation stopped at 62 hours, FIGS. 2A and 2B) | myogenesis of C2C12 cells (C2C12 cells [3]; dose of 0.2 mM, 72 hours, FIG. 1) | adverse effect [4] | cell toxicity (C2C12 cells [5])
 | CC(=O)N[C@H]1C(O)O[C@H](CO)[C@@H](O)[C@@H]1O (stereo partly drawn) [GlcNAc, N-acetylglucosamine] | promote the myogenesis of human myoblasts of DM1 | increase of the myogenesis of human myoblasts | renders myoblast appropriate differentiation even in the presence of Simvastatin | restores the myogenesis that is partially impaired by statin | stabilizes the adhesion of myotubes | Promotes the Myogenesis | increases the formation of myotubes | increases the number of multinuclear MHC expressing myotubes | increase of myogenesis of mouse myoblasts | increased not only the number of multinuclear MHC expressing myotubes but also the length and width of the myotubes | promotes myogenesis of C2C12 cells | not to have any significant adverse effect | 
the formation of myotube was reduced | CCC(C)(C)C(=O)O[C@H]1C[C@@H](C)C=C2C=C[C@H](C)[C@H](CC[C@@H]3C[C@@H](O)CC(=O)O3)[C@H]21 [Simvastatin, reference compound] |  |  |  |  |  |  |  |  |  |  |  |  | 
 | N[C@H]1C(O)O[C@H](CO)[C@@H](O)[C@@H]1O (stereo partly drawn) [glucosamine] |  |  |  |  |  | fails to promote the myogenesis; also recorded: inhibition of myogenesis; also recorded: fails to induce any positive impact on the myogenesis |  |  |  |  |  |  | showed toxicity to the myotubes; also recorded: induce cell toxicity
